Like-named read-outs stand apart in the source and are kept apart here.
Key:
[1] = test system: HIV-1 Env pseudovirus Du422, clone 1; assay: Single-cycle assay TZM-bl, Env pseudovirus panel
[2] = test system: HIV-1 Env pseudovirus HIV-25711-2, clone 4; assay: Single-cycle assay TZM-bl, Env pseudovirus panel
[3] = test system: HIV-1 Env pseudovirus TRO, clone 11; assay: Single-cycle assay TZM-bl, Env pseudovirus panel
[4] = test system: HIV-1 Env pseudovirus QB099.391M.ENV.C8; assay: Single-cycle assay TZM-bl, Env pseudovirus panel
[5] = test system: HIV-1 Env pseudovirus CRF02_AG, clone 33; assay: Single-cycle assay TZM-bl, Env pseudovirus panel
[6] = test system: HIV-1 Env pseudovirus MG505.W0M.ENV.A2; assay: Single-cycle assay, Paired Infant and Maternal Env clones
[7] = biological target: HIV-1 Reverse Transcriptase (RT) (Human immunodeficiency virus type 1 group M subtype B, UniProt P04585); assay: biochemical; format: biochemical
[8] = test system: HIV-1 Env pseudovirus BJ613.W6M.ENV.E1; assay: Single-cycle assay, Paired Infant and Maternal Env clones
[9] = test system: HIV-1 Env pseudovirus ML274.W0M.ENV.B1; assay: as above
[10] = test system: HIV-1 Env pseudovirus QH0692, clone 42; assay: Single-cycle assay TZM-bl, Env pseudovirus panel
[11] = test system: HIV-1 Env pseudovirus CAP210.2.00.E8; assay: Single-cycle assay TZM-bl, Env pseudovirus panel
[12] = test system: HIV-1 Env pseudovirus HIV-16936-2, clone 21; assay: Single-cycle assay TZM-bl, Env pseudovirus panel
[13] = test system: HIV-1 Env pseudovirus QA013.70I.ENV.H1; assay: Single-cycle assay TZM-bl, Env pseudovirus panel
[14] = test system: HIV-1 Env pseudovirus QF495.23M.ENV.A3; assay: Single-cycle assay TZM-bl, Env pseudovirus panel
[15] = test system: HIV-1 Env pseudovirus 9021_14.B2.4571; assay: Single-cycle assay TZM-bl, Env pseudovirus panel
[16] = test system: HIV-1 Env pseudovirus QA790.204I.ENV.A4; assay: Single-cycle assay TZM-bl, Env pseudovirus panel
[17] = test system: HIV-1 Env pseudovirus Q259ENV.W6; assay: Single-cycle assay TZM-bl, Env pseudovirus panel
[18] = test system: HIV-1 Env pseudovirus QG393.60M.ENV.B7; assay: Single-cycle assay TZM-bl, Env pseudovirus panel
[19] = test system: HIV-1 Env pseudovirus RHPA4259, clone 7; assay: Single-cycle assay TZM-bl, Env pseudovirus panel
[20] = test system: control pseudovirus VSV-G; assay: microbe, parasite or virus in culture; format: cell-based
[21] = test system: HIV-1 Env pseudovirus WEAUd15.410.5017; assay: Single-cycle assay TZM-bl, Env pseudovirus panel
[22] = test system: HIV-1 Env pseudovirus B41; assay: Single-cycle assay TZM-bl, Env pseudovirus panel
[23] = test system: HIV-1 Env pseudovirus BK184.W6M.ENV.D2; assay: Single-cycle assay, Paired Infant and Maternal Env clones
[24] = test system: HIV-1 Env pseudovirus MK184.W0M.ENV.E4; assay: as above
[25] = test system: HIV-1 Env pseudovirus CRF02_AG, clone 257; assay: Single-cycle assay TZM-bl, Env pseudovirus panel
[26] = test system: HIV-1 Env pseudovirus BG505.W6M.ENV.C2; assay: Single-cycle assay, Paired Infant and Maternal Env clones
[27] = test system: HIV-1 Env pseudovirus PVO, clone 4; assay: Single-cycle assay TZM-bl, Env pseudovirus panel
[28] = test system: HIV-1 Env pseudovirus QA790.204I.ENV.E2; assay: Single-cycle assay TZM-bl, Env pseudovirus panel
[29] = test system: HIV-1 Env pseudovirus REJO4541, clone 67; assay: Single-cycle assay TZM-bl, Env pseudovirus panel
[30] = test system: HIV-1 Env pseudovirus B1206.W6P.ENV.A1A; assay: Single-cycle assay, Paired Infant and Maternal Env clones
Cytotoxicity = format: cell-based; conditions: human, U87-CD4-CCR5 cells
[31] = test system: HIV-1 Env pseudovirus KNH1144; assay: Single-cycle assay TZM-bl, Env pseudovirus panel
[32] = test system: HIV-1 Env pseudovirus CRF02_AG, clone 253; assay: Single-cycle assay TZM-bl, Env pseudovirus panel
[33] = test system: HIV-1 Env pseudovirus QD435.100M.ENV.E1; assay: Single-cycle assay TZM-bl, Env pseudovirus panel
[34] = test system: HIV-1 Env pseudovirus THRO4156, clone 18; assay: Single-cycle assay TZM-bl, Env pseudovirus panel

## Cc1nc([C@@H](CN)NC(=O)c2ccc(-c3ccc(F)c(F)c3)[nH]2)sc1CO (single isomer, unassigned) [NBD-14113, reference compound]
[1]; subtype C, NIH # 11308, Du422, clone 1, TZM-bl cells
  IC50: 3 ± 0.1 µM
[2]; subtype C, NIH # 11506, HIV-25711-2, clone 4, TZM-bl cells
  IC50: 4.7 ± 0.4 µM
[3]; subtype B, NIH # 11023, TRO, clone 11, TZM-bl cells
  IC50: 5.1 ± 0.1 µM
[4]; subtype C, NIH # 11909, QB099.391M.ENV.C8, TZM-bl cells
  IC50: 4 ± 0.3 µM
[5]; subtype AG, NIH # 11607, CRF02_AG, clone 33, TZM-bl cells
  IC50: 3.5 ± 0.2 µM
[6]; subtype A, NIH # 11528-M (maternal), MG505.W0M.ENV.A2
  IC50: 4.7 ± 0.8 µM
[7]; HIV-1 Reverse Transcriptase, mean ± SD, n=3
  IC50: 45.9 ± 3.6 µM
[8]; subtype A, NIH # 11521-B (infant), BJ613.W6M.ENV.E1
  IC50: 2.8 ± 0.4 µM
[9]; subtype A, NIH # 11540-M (maternal), ML274.W0M.ENV.B1
  IC50: 4.5 ± 0.6 µM
[10]; subtype B, NIH # 11018, QH0692, clone 42, TZM-bl cells
  IC50: 4.3 ± 0.4 µM
[11]; subtype C, NIH # 11317, CAP210.2.00.E8, TZM-bl cells
  IC50: 3.7 ± 0.1 µM
[12]; subtype C, NIH # 11504, HIV-16936-2, clone 21, TZM-bl cells
  IC50: 5.9 ± 0.2 µM
[13]; subtype D, NIH # 11911, QA013.70I.ENV.H1, TZM-bl cells
  IC50: 3.5 ± 0.1 µM
[14]; subtype A, NIH # 11891, QF495.23M.ENV.A3, TZM-bl cells
  IC50: 4 ± 0.2 µM
[15]; subtype B, NIH # 11572, 9021_14.B2.4571, TZM-bl cells
  IC50: 3.2 ± 0.2 µM
[16]; subtype A1/D, NIH # 11901, QA790.204I.ENV.A4, TZM-bl cells
  IC50: 5.5 ± 0.3 µM
[17]; subtype A, NIH # 11887, Q259ENV.W6, TZM-bl cells
  IC50: 2.1 ± 0.3 µM
[18]; subtype A2/D, NIH # 11906, QG393.60M.ENV.B7, TZM-bl cells
  IC50: 5.9 ± 0.1 µM
[19]; subtype B, NIH # 11036, RHPA4259, clone 7, TZM-bl cells
  IC50: 3.7 ± 0.4 µM
[20]
  IC50: 26.3 ± 1.4 µM
[21]; subtype B, NIH # 11578, WEAUd15.410.5017, R5X4-tropic virus, TZM-bl cells
  IC50: 3.7 ± 0.3 µM
[22]; subtype B, B41, TZM-bl cells
  IC50: 3.4 ± 0.1 µM
[23]; subtype C/D, NIH # 11522-B (infant), BK184.W6M.ENV.D2
  IC50: 3.6 ± 0.2 µM
[24]; subtype C/D, NIH # 11536-M (maternal), MK184.W0M.ENV.E4
  IC50: 2.6 ± 0.3 µM
[25]; subtype AG, NIH # 11599, CRF02_AG, clone 257, TZM-bl cells
  IC50: 4.6 ± 0.5 µM
[26]; subtype A, NIH # 11518-B (infant), BG505.W6M.ENV.C2
  IC50: 4.4 ± 0.3 µM
[27]; subtype B, NIH # 11022, PVO, clone 4, TZM-bl cells
  IC50: 4 ± 0.3 µM
[28]; subtype A1/D, NIH # 11904, QA790.204I.ENV.E2, TZM-bl cells
  IC50: 3 ± 0.1 µM

## Cc1nc(C(CN)NC(=O)c2ccc(-c3ccc4c(c3)OCO4)[nH]2)sc1CO (stereo not drawn) [NBD-14110, N-(2-amino-1-(5-(hydroxymethyl)-4-methylthiazol-2-yl)ethyl)-5-(benzo[d][1,3]dioxol-5-yl)-1H-pyrrole-2-carboxamide]
[1]; TZM-bl
  IC50: 1.8 ± 0.2 µM
[2]; TZM-bl
  IC50: 4.4 ± 0.4 µM
[3]; TZM-bl
  IC50: 2.4 ± 0.4 µM
[4]; TZM-bl
  IC50: 4.3 ± 0.5 µM
[5]; TZM-bl
  IC50: 5 ± 0.3 µM
[6]
  IC50: 6.1 ± 0.5 µM
[7]
  IC50: 30.6 ± 2.7 µM
[29]
  IC50: 3.4 ± 0.3 µM
[30]
  IC50: 5.6 ± 0.2 µM
[8]
  IC50: 2.8 ± 0.1 µM
Cytotoxicity
  CC50 at 3 days: > 100 µM
[9]
  IC50: 7.1 ± 0.3 µM
[10]; TZM-bl
  IC50: 8.2 ± 0.2 µM
[11]; TZM-bl
  IC50: 5.5 ± 0.4 µM
[12]; TZM-bl
  IC50: 3.5 ± 0.1 µM
[13]; TZM-bl
  IC50: 2.9 ± 0.3 µM
[14]; TZM-bl
  IC50: 3 ± 0.1 µM
[31]
  IC50: 5.9 ± 0.4 µM
[15]; TZM-bl
  IC50: 4.5 ± 0.5 µM
[16]; TZM-bl
  IC50: 2.1 ± 0.6 µM
[17]; TZM-bl
  IC50: 1.9 ± 0.2 µM
[18]; TZM-bl
  IC50: 5.2 ± 0.3 µM
[19]; TZM-bl
  IC50: 2.8 ± 0.3 µM
[20]; Pseudovirus, U87/CD4/CCR5
  IC50: 51.6 ± 4.4 µM
[32]
  IC50: 3.2 ± 0.2 µM
[21]; TZM-bl
  IC50: 1.6 ± 0.1 µM
[22]; TZM-bl
  IC50: 2 ± 0.1 µM
[23]
  IC50: 3.7 ± 0.6 µM
[24]
  IC50: 3.4 ± 0.2 µM
[25]; TZM-bl
  IC50: 5.4 ± 0.2 µM
[33]
  IC50: 5.9 ± 0.4 µM
[26]
  IC50: 4.8 ± 0.3 µM
[27]; TZM-bl
  IC50: 1.4 ± 0.3 µM
[34]
  IC50: 2.7 ± 0.2 µM
[28]; TZM-bl
  IC50: 1.5 ± 0.2 µM
